According to patent US20110136899A1, “COMBINATION OF DRONEDARONE WITH AT LEAST ONE DIURETIC, AND THERAPEUTIC USE THEREOF” (SANOFI-AVENTIS, priority 2008, published 2011):
Structures can show the parent of a compound that is named as a salt.

What was measured:
[1] = prospective, multinational, multicentre, double-blind clinical study versus placebo: prevention of cardiovascular hospitalizations or of mortality; type: in vivo, patients; set-up: reduction in mortality from any cause: concentration or dose not given beside the values
Description: The patients had to have a history of atrial fibrillation or flutter and/or could be in normal sinus rhythm or in atrial fibrillation or flutter at inclusion.
The patient recruitment was carried out by taking into account the following inclusion criteria:
Inclusion Criteria: • 1) One of the following risk factors had to be present: • age equal to or above 70, or even above 75, possibly combined with at least one of the risk factors below: • hypertension (taking antihypertensives of at least two different classes), • diabetes, • history of cerebral stroke (transient ischemic event or completed cerebral stroke) or of systemic embolism, • left atrial diameter greater than or equal to 50 mm measured by echocardiography, • left ventricular ejection fraction less than 40%, measured by two-dimensional echography; • 2) availability of an electrocardiogram carried out during the past 6 months in order to document the presence or the history of atrial fibrillation or flutter; • 3) availability of an electrocardiogram carried out during the past 6 months in order to document the presence or absence of normal sinus rhythm.
Treatment was initiated using tablets containing either the placebo or an amount of dronedarone hydrochloride corresponding to 400 mg of dronedarone at a rate of one tablet in the morning during or shortly after breakfast and one tablet in the evening during or shortly after dinner.
The anticipated duration of the treatment was variable according to the time at which each patient was included in the study, and could range from a minimum of 12 months for the last patient included up to a maximum corresponding to the entire duration of the study (12 months+duration of inclusion), i.e. approximately 30 months for the first patients included.
The results obtained in this trial were analysed by the Kaplan Meier method for the figures, and the relative risk (RR) was estimated using Cox's proportional-effect regression model.
The relative risk (RR) is the ratio of the rates of occurrence of a hospitalization or of a death among the patients on dronedarone, relative to the patients on placebo.
The percentage reduction x of a given event (hospitalization, death, cardiovascular death, etc.) is calculated in the following way: […]

[2] = regulation of the blood potassium level (regular blood samples taken throughout the clinical study); type: in vivo, patients; details: after the 24th month, taking into account the starting value; compared to the placebo; p<0.0001
Source text: The potassium concentration-modulating effect is clearly documented in the study by virtue of the results of analyses of regular blood samples taken throughout the duration of the study in the context of the monitoring of vital parameters.
The variations in potassium (in mmol/l) between the first and the last administration of the medicament of the study are included in FIG. 8, in which B signifies basal level, D signifies day and M signifies month.

[3] = versus placebo, x=1−relative risk

SMILES: CCCCc1oc2ccc(NS(C)(=O)=O)cc2c1C(=O)c1ccc(OCCCN(CCCC)CCCC)cc1 [dronedarone hydrochloride]
- events (cardiovascular hospitalizations and mortality, principal judgment criterion) ([1]; 2301 patients in treated group, 400 mg dronedarone twice daily, placebo group 917 events): 734
- sudden deaths ([1]; 2301 patients in treated group, placebo group 35 sudden deaths): 14
- cardiovascular deaths ([1]; 2301 patients in treated group, placebo group 94 cardiovascular deaths): 65
- deaths (mortality from any cause) ([1]; 2301 patients in treated group, placebo group 139 deaths): 116
- events (cardiovascular hospitalizations) ([1]; 2301 patients in treated group, placebo group 859 events): 675
- events (cardiovascular hospitalizations and sudden death) ([1]; 2301 patients in treated group, placebo group 873 events): 684
- events (cardiovascular hospitalizations and cardiovascular mortality) ([1]; 2301 patients in treated group, placebo group 892 events): 701
- relative risk (sudden death) ([1]; versus placebo, Cox model, p=0.0031): 0.405
- relative risk (cardiovascular mortality) ([1]; versus placebo, Cox model, p=0.0252): 0.698
- relative risk (mortality from any cause) ([1]; versus placebo, Cox model, p=0.1758): 0.844
- relative risk (cardiovascular hospitalizations and deaths) ([1]; versus placebo, Cox model, p=2×10^−8): 0.758
- relative risk (cardiovascular hospitalizations) ([1]; versus placebo, Cox model, p=9×10^−9): 0.745
- relative risk (cardiovascular hospitalizations and cardiovascular deaths) ([1]; versus placebo, Cox model, p=45×10^−10): 0.745
- relative risk (cardiovascular hospitalizations and sudden deaths) ([1]; versus placebo, Cox model, p=48×10^−10): 0.743
- reduction in cardiovascular hospitalizations [1, 3]: 25.5%
- reduction in cardiovascular hospitalizations and cardiovascular deaths [1, 3]: 25.5%
- reduction in cardiovascular hospitalizations and deaths [1, 3]: 24.2%
- reduction in cardiovascular hospitalizations and sudden deaths [1, 3]: 25.5%
- reduction in cardiovascular mortality [1, 3]: 30.2%
- reduction in mortality from any cause [1, 3]: 15.6%
- reduction in sudden death [1, 3]: 59.5%

SMILES: CCCCc1oc2ccc(NS(C)(=O)=O)cc2c1C(=O)c1ccc(OCCCN(CCCC)CCCC)cc1 [dronedarone, 2-n-Butyl-3-[4-(3-di-n-butylaminopropoxy)benzoyl]-5-methylsulphonamidobenzofuran]
- reduction in the risk of sudden death ([1]; hypertensive patients): approximately 62%
- reduction in the risk of sudden death ([1]; patients not taking diuretics, compared with the placebo): approximately 34%
- reduction in the risk of sudden death ([1]; patients on diuretics, compared with the placebo): approximately 70.4%
- reduction in the risk of sudden death ([1]; patients who were not hypertensive): approximately 45.5%
- change in blood potassium level (analysis of covariance) [2]: significant different in favour of dronedarone
